# Patent US12551576B2, “Chemiluminescent probes” (The General Hospital Corporation, priority 2020, dated 2026)
# pKd: −log10 of the molar value. Where “and” joins values, the source holds several entries; their conditions need not be identical. Identical values can stand only once. Like-named read-outs stand apart in the source and are kept apart here.
# Columns and labels:
# Aβ40 aggregates [1] = target: T1, Aβ40 aggregates (Homo sapiens, UniProt P05067); experiment: Binding affinity of ADLumin-1 with Aβs (fluorescence titration); conditions: ADLumin-1 250 nM, Aβ40 aggregates 0 to 8 μM, fluorescence at 515 nm
# Target sequence in this assay (P05067 672-711 limits assumed): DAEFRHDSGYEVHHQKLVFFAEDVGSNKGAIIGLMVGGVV
# Aβ40 aggregates [2] = target: T1, Aβ40 aggregates; experiment: In vitro fluorescence spectral testing of ADLumin-1 with Aβ40 aggregates; type: binding
# Target sequence in this assay (P05067 672-711 limits assumed): as above
# Aβ40 aggregates [3] = target: T1, Aβ40 aggregates; experiment: In vitro chemiluminescence study with Aβ aggregates in PBS; type: binding
# Target sequence in this assay (P05067 672-711 limits assumed): as above
# [4] = target: Aβ aggregates in mouse brain homogenate (Homo sapiens, UniProt P05067); experiment: In vitro chemiluminescence study in brain homogenate; type: binding
# Aβ plaques = Aβ plaques (Homo sapiens, UniProt P05067); experiment: Ex vivo histological study; type: in vivo, 5×FAD mouse; conditions: mouse sacrificed after two-photon imaging
# Protocol: The fresh brain tissue was fixed in 4% formaldehyde for 24 hours and transferred into 30% sucrose at 4° C. until the tissue sunk. Then the tissue was embedded in an OCT block, which was sectioned into 25-μm slice with a cryostat. Then the slice was covered with FluoroShield mounting medium (Abcam).
# Aβ40 aggregates [5] = target: T1, Aβ40 aggregates; experiment: In vivo mimic demonstration of DAS-CRET; conditions: FIG. 8E, subcutaneous injection in nude mouse
# Protocol: After solutions were prepared, one female 8-month old nude mouse was anesthetized, and the left hind limb was subcutaneously injected with the first solution and the right hind limbs was subcutaneously injected with the second solution. The mouse was then placed into the IVIS imaging chamber and images were captured from the dorsal side and from the ventral side with the open filter (500 nm-840 nm) and specific filters.
# Target sequence in this assay (P05067 672-711): as the sequence (P05067 672-711 limits assumed) above
# prion = type: binding
# insulin = target: T2, insulin (Homo sapiens, UniProt P01308); experiment: Chemiluminescence with misfoldon aggregates in PBS (insulin); type: binding
# T2 construct: immunoglobulin G (IgG), proinsulin, insulin, and apolipoprotein A-I (APO)
# amylin = amylin (Homo sapiens, UniProt P10997); type: binding
# Tau = experiment: Chemiluminescence with misfoldon aggregates in PBS (Tau); type: binding; conditions: ADLumin-1 2.5 μM, Tau aggregates 2.5 μM
# [6] = target: Aβ40 aggregates, monomers and oligomers in human serum (Homo sapiens, UniProt P05067); experiment: Chemiluminescence of Aβ40 species incubated with non-diluted human serum
# Immunoglobulin G (IgG) = experiment: Aβ aggregates incubated with IgG
# human serum albumin = human serum albumin (Homo sapiens, UniProt P02768); experiment: Aβ aggregates incubated with human serum albumin
# Apolipoprotein A-I (APO) = Apolipoprotein A-I (APO) (Homo sapiens, UniProt P02647); experiment: Aβ aggregates incubated with APO
# Transthyretin = Transthyretin (Homo sapiens, UniProt P02766); experiment: Aβ aggregates incubated with transthyretin
# [7] = system: beta-sheet misfoldons in patient serum; experiment: Chemiluminescence detection of beta-sheet misfoldons in disease serum; set-up: species or system human
# Protocol: Chemiluminescence detection beta-sheet misfoldons in disease serum by ADLumin-1: serum of AD patient contains abundant beta-sheet misfoldons that can be detected by ADLumin-1. ADLumin-1 (2.5 μM) was added to 100 μl non-diluted serum of AD patients, and serum from health control (HC) was used as the control. […] This is remarkable, since this difference is phenomenally large and is very useful for blood quality evaluation.
# Misfolded beta-sheets are associated with various diseases, including brain disorders (e.g., neurodegenerative disorders) and periphery diseases, particularly chronic diseases. The patient sera of chronic diseases also contains abundant beta-sheet misfoldons. In this regard, patient sera of multiple sclerosis, diabetes, rheumatoid arthritis and pulmonary fibrosis patients was used in this example.
# [8] = system: beta-sheet misfoldons in mixed HC and disease serum; set-up: species or system human
# [9] = target: Aβ plaques and cerebral amyloid angiopathy (CAA) (Homo sapiens, UniProt P05067)
# [10] = two-photon imaging, 5×FAD mouse, i.v. 4 mg/kg
# Aβ plaques and cerebral amyloid angiopathy (CAA), sequence (P05067 672-713 limits assumed): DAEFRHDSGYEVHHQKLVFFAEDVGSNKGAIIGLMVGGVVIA
# Aβ40 aggregates, monomers and oligomers in human serum, sequence (P05067 672-711 limits assumed): as the sequence (P05067 672-711 limits assumed) above
# T2 sequence (P01308 25-54 limits assumed, species assumed): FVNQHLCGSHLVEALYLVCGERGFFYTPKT
# T2 sequence (P01308 90-110 limits assumed, species assumed): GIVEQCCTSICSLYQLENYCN
# Aβ aggregates in mouse brain homogenate, sequence (P05067 672-711 limits assumed): as the sequence (P05067 672-711 limits assumed) above
# Apolipoprotein A-I (APO), sequence (P02647 25-267): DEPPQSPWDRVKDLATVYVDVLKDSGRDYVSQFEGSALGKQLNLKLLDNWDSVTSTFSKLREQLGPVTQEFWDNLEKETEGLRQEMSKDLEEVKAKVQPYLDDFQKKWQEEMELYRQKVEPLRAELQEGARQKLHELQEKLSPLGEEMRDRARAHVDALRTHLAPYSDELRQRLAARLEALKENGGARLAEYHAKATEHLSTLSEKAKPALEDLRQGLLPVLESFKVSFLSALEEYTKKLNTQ
# human serum albumin, sequence (P02768 25-609): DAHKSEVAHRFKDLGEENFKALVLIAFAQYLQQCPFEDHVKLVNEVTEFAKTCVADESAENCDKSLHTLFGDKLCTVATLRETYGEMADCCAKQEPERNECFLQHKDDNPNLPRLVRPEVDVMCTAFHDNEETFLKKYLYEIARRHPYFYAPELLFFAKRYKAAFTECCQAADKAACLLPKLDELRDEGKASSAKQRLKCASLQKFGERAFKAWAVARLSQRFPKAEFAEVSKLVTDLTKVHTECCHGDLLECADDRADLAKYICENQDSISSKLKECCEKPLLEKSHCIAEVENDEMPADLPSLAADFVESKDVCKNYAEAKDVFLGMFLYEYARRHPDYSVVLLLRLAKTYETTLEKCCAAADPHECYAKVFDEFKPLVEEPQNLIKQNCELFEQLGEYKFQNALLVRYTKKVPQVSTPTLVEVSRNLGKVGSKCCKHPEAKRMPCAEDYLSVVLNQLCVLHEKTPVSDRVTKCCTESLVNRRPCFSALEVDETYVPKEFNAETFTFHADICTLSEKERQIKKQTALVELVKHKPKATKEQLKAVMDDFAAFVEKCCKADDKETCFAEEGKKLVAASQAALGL
# amylin, sequence (P10997 34-70 limits assumed): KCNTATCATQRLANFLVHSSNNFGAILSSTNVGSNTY
# Aβ plaques, sequence (P05067 672-713 limits assumed): as the sequence (P05067 672-713 limits assumed) above
smiles,measurement,setting,value
"Cc1nc2c[nH]c(/C=C/C=C/c3ccc(N(C)C)cc3)cn-2c1=O [ADLumin-1, 6-((1E,3E)-4-(4-(dimethylamino)phenyl)buta-1,3-dien-1-yl)-2-methylimidazo[1,2-a]pyrazin-3(7H)-one]",pKd,Aβ40 aggregates [1],5.68
same,fluorescence intensity increasing upon mixing with Aβs,Aβ40 aggregates [2],100 fold
same,shift of fluorescence emission of the probe with Aβs,Aβ40 aggregates [2],significant blue-shift
same,"chemiluminescence signal, wells with Aβs vs wells without Aβs","Aβ40 aggregates [3]; IVIS imaging system, open filter, 96-well plate",104 fold
same,chemiluminescence intensity increase upon incubation with Aβs,"Aβ40 aggregates [3]; PBS buffer with 2% DMSO, at 540 nm",about 216 fold
same,amplification of chemiluminescence intensity upon mixing with Aβs in vitro,"Aβ40 aggregates [3]; in vitro, summary statement",216 fold and > 200 fold
same,Aβ concentration range with linear intensity increase,[4],0 to 12.5 µM
same,"chemiluminescence signal, Aβ group vs no Aβ",[4]; Aβ aggregates 12.5 μM,about 11.6 fold
same,brightness of plaques in brain slides,Aβ plaques,considerably bright
same,SNR (ROI1/ROI2),Aβ40 aggregates [5],> 2000 and 2189
same,largest chemiluminescence difference with aggregates,prion,2.22 fold
same,signal decay T½,prion,11.36 min
same,largest chemiluminescence difference with aggregates,"insulin; ADLumin-1 2.5 μM, insulin aggregates 2.5 μM, PBS",10.8 fold
same,signal decay T½,insulin; with insulin aggregates,> 60 min
same,largest chemiluminescence difference with aggregates,amylin,4.20 fold
same,largest chemiluminescence difference with aggregates,Tau,7.02 fold
same,chemiluminescence ratio of the Aβ group and the control group,[6]; Aβ40 aggregate 2.5 μM,about 3.43 fold
same,chemiluminescence intensity Aβ group vs control group,[6]; Aβ monomers,1.96 fold
same,chemiluminescence intensity Aβ group vs control group,[6]; Aβ oligomers,1.71 fold
same,chemiluminescence intensity IgG/Aβ group vs IgG group,Immunoglobulin G (IgG); incubation 30 minutes,1.81 fold
same,chemiluminescence intensity IgG/Aβ group vs IgG group,Immunoglobulin G (IgG); incubation 60 minutes,1.71 fold
same,chemiluminescence intensity IgG/Aβ group vs IgG group,Immunoglobulin G (IgG); incubation 120 minutes,2.55 fold
same,difference between Aβ/albumin and albumin only group,human serum albumin,no significant differences
same,intensity Aβ/APO group vs control group,Apolipoprotein A-I (APO),higher intensity
same,intensity Aβ/transthyretin group vs control group,Transthyretin,higher intensity
same,chemiluminescence signal AD serum vs HC serum,"[7]; ADLumin-1 2.5 μM, 100 μl non-diluted serum",> 50 fold and 52.2 fold
same,chemiluminescence signal disease serum vs HC control,[7]; diabetes serum,44.7 fold
same,chemiluminescence signal disease serum vs HC control,[7]; multiple sclerosis serum,34.9 fold
same,chemiluminescence signal disease serum vs HC control,[7]; pulmonary fibrosis serum,16.6 fold
same,chemiluminescence signal disease serum vs HC control,[7]; rheumatoid arthritis serum,29.3 fold
same,total signal of mixed group vs sum of 90% HC serum and 10% AD serum,[8],1.66 fold
same,signal mixture of HC serum and disease serum vs HC serum,[8]; 10% diabetes serum,3.34 fold
same,signal mixture of HC serum and disease serum vs HC serum,[8]; 10% multiple sclerosis serum,7.24 fold
same,signal mixture of HC serum and disease serum vs HC serum,[8]; 10% pulmonary fibrosis serum,4.60 fold
same,signal mixture of HC serum and disease serum vs HC serum,[8]; 10% rheumatoid arthritis serum,6.64 fold
same,chemiluminescence signal mixed group vs 100% HC serum,[8]; 90% HC serum and 10% AD serum,7.75 fold
same,SNR of CAAs,[9]; [10],~26.0
same,SNR of plaques,[9]; [10],about 17.0
same,time to peak intensity in CAA,[9]; two-photon time-course imaging,≤ 1 min
same,time to peak intensity in plaques,[9]; two-photon time-course imaging,5 min
